Measurements published in ChEMBL document CHEMBL4330111 (Bioorg Med Chem Lett, 2019).

Columns and labels:
[1] = test system: Mycobacterium tuberculosis; experiment: microbe, parasite or virus in culture; conditions: H37Rv, 144 h
Description: Antitubercular activity against Mycobacterium tuberculosis H37Rv after 6 days by alamar blue reagent based assay

Vero = experiment: Cytotoxicity against African green monkey Vero cells after 48 hrs by MTT assay; assay type: cell-based; conditions: chlorocebus sabaeus
[2] = Kinetic solubility of the compound in pH 7.4 phosphate buffered saline; assay type: physicochemical; conditions: for Kinetic_solubility: buffer; for solubility kinetic: phosphate buffered saline, read-out: Kinetic_solubility
[3] = Intrinsic clearance in mouse liver microsomes assessed per mg protein; assay type: ADME, Microsome
[4] = Half life in mouse liver microsomes; assay type: ADME, Microsome
Klebsiella pneumoniae = experiment: Antibacterial activity against Klebsiella pneumoniae BAA 2146; assay type: functional; conditions: ATCC BAA-2146
Staphylococcus aureus = experiment: Antibacterial activity against Staphylococcus aureus ATCC 43300; assay type: functional
[5] = AUC (0 to 5 hrs) in CD-1 mouse at 25 mg/kg, po administered as single dose by LC-MS/MS analysis; assay type: ADME, organism-based; parameters: dose 25 mg/kg, route oral; conditions: in vivo
Pseudomonas aeruginosa = experiment: Antibacterial activity against Pseudomonas aeruginosa HER1018; assay type: functional
Enterococcus faecium = experiment: Antibacterial activity against Enterococcus faecium NCTC 7171; assay type: functional
Acinetobacter baumannii = experiment: Antibacterial activity against Acinetobacter baumannii ATCC 19606; assay type: functional; conditions: ATCC 19606 = CIP 70.34 = JCM 6841
[6] = Cmax in CD-1 mouse at 25 mg/kg, po administered as single dose by LC-MS/MS analysis; assay type: ADME, organism-based; parameters: dose 25 mg/kg, route oral; conditions: in vivo
[7] = Antibacterial activity against Enterobacter cloacae ATCC 13047; assay type: functional, Enterobacter cloacae subsp. cloacae
[8] = Ratio of drug level in CD-1 mouse lungs to plasma at 25 mg/kg, po administered as single dose measured after 5 hrs by LC-MS/MS analysis; assay type: ADME, organism-based; conditions: lung/plasma

Structure (SMILES) | MIC [1] | CC50 (Vero) | further results
CN(C)c1ccc(C(C)(C)NC(=O)c2ccc([N+](=O)[O-])o2)cc1 | 0.2 µM | 79 µM | 
O=C(Nc1ccc2ccccc2c1)c1ccc([N+](=O)[O-])o1 | 0.0078 µM | > 150 µM | Kinetic_solubility [2]: 1.5 µM; Intrinsic clearance [3]: 325 µL/min; t1/2 [4]: 2.13 min
O=C(NCc1ccc(-c2ccc(Cl)cc2)cc1)c1ccc([N+](=O)[O-])o1 | 0.12 µM | 4.4 µM | 
CC(C)(NC(=O)c1ccc([N+](=O)[O-])o1)c1ccc(C#N)cc1 | > 10 µM | 83 µM | 
COc1ccc(OCc2ccc(C(C)(C)NC(=O)c3ccc([N+](=O)[O-])o3)cc2)cc1 | 0.078 µM | > 120 µM | solubility kinetic [2]: < 0.06 µM; MIC (Klebsiella pneumoniae): > 120 µM; MIC (Staphylococcus aureus): > 120 µM; AUC [5]: 11 ng·h/mL; MIC (Pseudomonas aeruginosa): > 120 µM; MIC (Enterococcus faecium): > 120 µM; MIC (Acinetobacter baumannii): > 120 µM; Intrinsic clearance [3]: 15.4 µL/min; Cmax ([6]; mouse): 5 ng/mL; t1/2 [4]: 45 min; MIC [7]: > 120 µM
CC(NC(=O)c1ccc([N+](=O)[O-])o1)c1ccccc1 (stereo unspecified) | 6.2 µM | 24 µM | 
O=C(NCc1ccc(Cl)cc1)c1ccc([N+](=O)[O-])o1 | 0.098 µM |  | 
CC(C)(NC(=O)c1ccc([N+](=O)[O-])o1)c1ccc(CN2CCOCC2)cc1 | > 10 µM | 130 µM | 
O=C(Nc1ccccc1)c1ccc([N+](=O)[O-])o1 | 3.1 µM | 6.7 µM | 
CC(C)(NC(=O)c1ccc([N+](=O)[O-])o1)c1ccc(-c2ccc(Cl)cc2)cc1 | 25 µM | > 140 µM | 
O=C(NCc1cccc(Cl)c1)c1ccc([N+](=O)[O-])o1 | 0.78 µM | 5.5 µM | 
COc1ccc(C(C)(C)NC(=O)c2ccc([N+](=O)[O-])o2)cc1 | 0.078 µM |  | 
O=C(NCCc1ccc(Cl)cc1)c1ccc([N+](=O)[O-])o1 | 0.39 µM | 5.4 µM | 
O=C(NCCCc1ccccc1)c1ccc([N+](=O)[O-])o1 | 0.78 µM | 11 µM | 
CC(C)(NC(=O)c1ccc([N+](=O)[O-])o1)c1ccc(F)cc1 | 0.78 µM | 42 µM | 
CC(C)(NC(=O)c1ccc([N+](=O)[O-])o1)c1ccc(COc2ccc(Cl)cc2)cc1 | 0.12 µM |  | AUC [5]: 34 ng·h/mL; Cmax ([6]; CD-1, mouse, read-out: Cmax): 22 nM
CO[C@H]1/C=C/O[C@@]2(C)Oc3c(C)c(O)c4c(O)c(c(/C=N/N5CCN(C)CC5)c(O)c4c3C2=O)NC(=O)/C(C)=C\C=C\[C@H](C)[C@H](O)[C@@H](C)[C@@H](O)[C@@H](C)[C@H](OC(C)=O)[C@@H]1C [RIFAMPIN] | 0.0125 to 0.05 µg/mL |  | 
CC(C)(NC(=O)c1ccc([N+](=O)[O-])o1)c1ccc(COc2ccc(C(F)(F)F)cc2)cc1 | 0.39 µM | 7 µM | 
O=C(Nc1ccc(Cl)cc1)c1ccc([N+](=O)[O-])o1 | 0.78 µM | 1.5 µM | 
O=C(NCc1ccc(CN2CCOCC2)cc1)c1ccc([N+](=O)[O-])o1 | 1.2 µM | 18 µM | 
CC(C)(NC(=O)c1ccc([N+](=O)[O-])o1)c1ccc(C(F)(F)F)cc1 | 0.78 µM | > 150 µM | 
CC(C)(NC(=O)c1ccc([N+](=O)[O-])o1)c1ccc(COc2ccccc2C(F)(F)F)cc1 | 0.31 µM | 14 µM | 

Structure (SMILES) | MIC [1] | CC50 (Vero) | further results
CC(C)(NC(=O)c1ccc([N+](=O)[O-])o1)c1ccc(COc2ccc(OC(F)(F)F)cc2)cc1 | 0.39 µM | 6.7 µM | 
CC(C)(NC(=O)c1ccc([N+](=O)[O-])o1)c1ccc(Cl)cc1 | 0.15 µM |  | 
O=C(NC1(c2ccccc2)CC1)c1ccc([N+](=O)[O-])o1 | 6.2 µM | 46 µM | 
COc1ccccc1OCc1ccc(C(C)(C)NC(=O)c2ccc([N+](=O)[O-])o2)cc1 | 0.019 µM |  | Kinetic_solubility [2]: 0.182 µM; MIC (Klebsiella pneumoniae): > 120 µM; MIC (Staphylococcus aureus): > 120 µM; AUC [5]: 210 ng·h/mL; MIC (Pseudomonas aeruginosa): > 120 µM; Kp at 5 h [8]: 0.04 to 0.09; MIC (Enterococcus faecium): > 120 µM; MIC (Acinetobacter baumannii): > 120 µM; Intrinsic clearance [3]: 59.8 µL/min; Cmax ([6]; CD-1, mouse, read-out: Cmax): 210 nM; t1/2 [4]: 11.6 min; MIC [7]: > 120 µM
CC(C)(NC(=O)c1ccc([N+](=O)[O-])o1)c1ccccc1 | 0.78 µM |  | Kinetic_solubility [2]: 388 µM; AUC [5]: 717 ng·h/mL; Intrinsic clearance [3]: 9.3 µL/min; Cmax ([6]; CD-1, mouse, read-out: Cmax): 1620 nM; t1/2 [4]: 74.5 min
CC(C)(NC(=O)c1ccc([N+](=O)[O-])o1)c1ccc(OC(F)(F)F)cc1 | 0.2 µM | 70 µM | 
CC(C)(C)C(NC(=O)c1ccc([N+](=O)[O-])o1)c1ccccc1 (stereo unspecified) | 25 µM | 10 µM | 
CC(C)(NC(=O)c1ccc([N+](=O)[O-])o1)c1ccc(COc2ccccc2Cl)cc1 | 0.31 µM | 30 µM | 
O=C(NC(=O)c1ccc([N+](=O)[O-])o1)c1ccccc1 | 25 µM | 3 µM | 
O=C(NC(c1ccccc1)C1CC1)c1ccc([N+](=O)[O-])o1 (stereo unspecified) | 12 µM | 22 µM | 
O=C(NCc1ccc(COc2ccc(Cl)cc2)cc1)c1ccc([N+](=O)[O-])o1 | 0.039 µM |  | 
O=C(NCCCc1ccc(Cl)cc1)c1ccc([N+](=O)[O-])o1 | 0.39 µM | 19 µM | 
O=C(NCc1ccccc1Cl)c1ccc([N+](=O)[O-])o1 | 6.2 µM | 11 µM | 
O=C(NCc1ccc(Oc2ccc(Cl)cc2)cc1)c1ccc([N+](=O)[O-])o1 | 0.062 µM |  | 
CC(C)C(NC(=O)c1ccc([N+](=O)[O-])o1)c1ccccc1 (stereo unspecified) | 6.2 µM | 22 µM | 
CC(C)(C)c1ccc(C(C)(C)NC(=O)c2ccc([N+](=O)[O-])o2)cc1 | 0.39 µM | > 150 µM | 
CC(C)(NC(=O)c1ccc([N+](=O)[O-])o1)c1ccc(COc2ccccc2OC(F)(F)F)cc1 | 0.098 µM | 13 µM | 
CC(C)(NC(=O)c1ccc([N+](=O)[O-])o1)c1ccc(Oc2ccc(Cl)cc2)cc1 | 0.39 µM | 67 µM | 
O=C(Nc1cc2ccccc2s1)c1ccc([N+](=O)[O-])o1 | 0.078 µM | 38 µM | Kinetic_solubility [2]: 5.61 µM; Intrinsic clearance [3]: 371 µL/min; t1/2 [4]: 1.87 min
O=C(Nc1cc2ccccc2o1)c1ccc([N+](=O)[O-])o1 | 0.2 µM | 40 µM | 
O=C(NCCc1ccccc1)c1ccc([N+](=O)[O-])o1 | 3.1 µM | 12 µM | 
O=C(NCc1ccccc1)c1ccc([N+](=O)[O-])o1 | 0.39 µM | 13 µM | solubility kinetic [2]: > 500 µM; MIC (Klebsiella pneumoniae): > 200 µM; MIC (Staphylococcus aureus): > 200 µM; AUC [5]: 547 ng·h/mL; MIC (Pseudomonas aeruginosa): > 200 µM; MIC (Enterococcus faecium): > 200 µM; MIC (Acinetobacter baumannii): > 200 µM; Intrinsic clearance [3]: 24.3 µL/min; Cmax ([6]; CD-1, mouse, read-out: Cmax): 1160 nM; t1/2 [4]: 28.5 min; MIC [7]: > 200 µM
